Key:
[1] = biological target: T1, LINE1 reverse transcriptase (Homo sapiens, UniProt O00370); assay: Stable artificial-intron Cis LINE1 reporter assay; type: cell-based; set-up: expressed in transfected cells; host or cells: HeLa Tet-On 3G (Takara, cat no 631183)
Description: A stable HeLa Tet-On 3G (Takara, cat no 631183) cell line expressing a bi-directional inducible LINE1 construct was generated as described in Xie, Y. et al. “Cell division promotes efficient retrotransposition in a stable L1 reporter cell line,” Mobile DNA (2013) 4:10. Single cell clones were screened for high Luciferase expression and the highest expression Firefly expressing clone was chosen for compound testing.
Test compounds were serially diluted in DMSO and spotted in 96-well plates. Subsequently the HeLa L1 artificial-intron reporter cells were plated into the compound-containing wells (8,000 cells/well), and the cells were induced for reporter expression with doxycycline (Sigma cat no D9891) at a final concentration of 500 ng/mL. Luminescence was measured 72 h after plating using the Dual-Glo Luciferase Assay System (Promega cat no E2940) following the manufacturer's instructions. The Firefly Luciferase activity (normalized against its activity in a control well without test compound) was used to report LINE1 activity.

[2] = biological target: T1, LINE1 reverse transcriptase; assay: Transient artificial-intron Cis LINE1 reporter assay; type: cell-based; set-up: expressed in transfected cells
Procedure: Intron-disrupted Firefly luciferase (FLuc) expression cassettes were generated as described by Xie, Y. et al. “Characterization of L1 retrotransposition with high-throughput dual-luciferase assays,” Nucleic Acid Res. (2011) Vol. 39, No. 3, e16. In addition, the plasmid contained an intact Renilla luciferase (RLuc) expression cassette on the vector backbone, in order to normalize transfection efficiency and measure potential cell toxicity.
HEK 293 cells were seeded in 96-well plates at 1,000 cells/well in 55 μL and grown for 24 hours. Cells were transfected with FuGeneHD (Promega) following the manufacturer's protocol. Each well received 0.133 ng plasmid, 0.4 μL FuGeneHD reagent, and 4.5 μL GlutaMAX-I-supplemented Opti-MEM I reduced-serum medium (Invitrogen). Cells were simultaneously treated with test compound serially diluted starting at 100 μM in a 3-fold dilution dose response.
Luminescence was measured using the Dual-Glo Luciferase Assay System (Promega) following the manufacturer's instructions. The ratio between FLuc and RLuc gene expression (each of which was normalized against its expression in a control well without test compound) was used to report LINE1 activity.

[3] = biological target: T2, recombinant MBP-tagged LINE1 protein (238-1061) (Homo sapiens, UniProt O00370); assay: Homogeneous time-resolved fluorescence (HTRF) LINE1 RT assay; type: biochemical; settings: tetra(sodium) salt; 25° C., 60 minutes
T2 construct: recombinant MBP-tagged LINE1 protein (238-1061); made in house
Procedure: The LINE1 reverse transcriptase homogeneous time-resolved fluorescence (HTRF) assay was performed with recombinant MBP-tagged LINE1 protein (238-1061) (generated and purified according to procedures in Dai L. et al. BMC Biochemistry 2011; 12:18) in a 384-well format. Test compound was serially diluted in DMSO and further diluted in the assay buffer (50 mM Tris-HCl, 50 mM KCl, 10 mM MgCl2, 10 mM DTT, pH 8.1) to achieve a final DMSO concentration of 1%. The serially diluted compound was mixed with 64 ng/well of LINE1 enzyme, 5 nM of pre-annealed template/biotin-primer pair (synthesized at Generay Biotechnology), 10 nM of Fluorescein-12-dATP fluorescent probe (Perkin Elmer), and 1 μM dGTP/dCTP/dTTP (Thermo Fisher Scientific) in the assay buffer. The template/biotin-primer sequences were as follows:
(§1) After incubating at 25° C. for 60 minutes, the detection reagent (20 mM EDTA with streptavidin-terbium cryptate, Cisbio Bioassay) in the PPI buffer (Cisbio Bioassay) was added, and the mixture was incubated at 25° C. for 30 minutes. At the end of the incubation, fluorescence was read at ex/em=337/485 nm and ex/em=337/520 nm on an Envision 2104 plate reader (Perkin Elmer). The fluorescence ratio at 520/485 nm was used for the calculation. […] The IC50 was calculated by fitting the compound dose inhibition curve with a 4-parameter non-linear regression equation.

[4] = biological target: T3, HERV-K reverse transcriptase (2-596)-8His protein (Homo sapiens, UniProt V9H0F6); assay: Homogeneous time-resolved fluorescence (HTRF) HERV-K RT assay; type: biochemical; settings: tetra(sodium) salt; 25° C., 30 minutes
T3 construct: fused on or other part: C-terminal 8His tag
T3 sequence (V9H0F6 entry or part of it): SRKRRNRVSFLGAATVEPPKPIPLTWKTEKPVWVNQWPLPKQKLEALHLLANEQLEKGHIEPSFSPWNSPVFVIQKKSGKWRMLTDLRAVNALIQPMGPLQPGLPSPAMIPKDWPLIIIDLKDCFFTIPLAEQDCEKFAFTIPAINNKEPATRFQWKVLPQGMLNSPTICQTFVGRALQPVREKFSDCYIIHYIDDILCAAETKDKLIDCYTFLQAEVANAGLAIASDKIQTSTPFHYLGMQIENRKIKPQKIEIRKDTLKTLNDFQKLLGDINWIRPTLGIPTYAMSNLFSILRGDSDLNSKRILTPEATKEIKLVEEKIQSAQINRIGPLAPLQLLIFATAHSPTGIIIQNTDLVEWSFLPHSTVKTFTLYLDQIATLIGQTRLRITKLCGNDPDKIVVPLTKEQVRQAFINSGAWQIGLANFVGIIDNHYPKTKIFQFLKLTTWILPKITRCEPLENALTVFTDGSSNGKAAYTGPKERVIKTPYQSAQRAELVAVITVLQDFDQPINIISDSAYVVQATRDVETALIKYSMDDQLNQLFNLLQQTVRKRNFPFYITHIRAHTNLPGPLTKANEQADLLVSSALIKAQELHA
Procedure: The HERV-K reverse transcriptase homogeneous time-resolved fluorescence (HTRF) assay was performed in a 384-well format with HERV-K reverse transcriptase (2-596)-8His protein. Baculoviruses were created using Bac-to-Bac technology (Invitrogen). pFastBac donor plasmids containing HERV-K reverse transcriptase sequence (NCBI GenBank number AAC63291.1, J. Virology (1999) Vol. 73, No. 3, pp. 2365-2375) were transformed into DH10 Bac cells following the manufacturer's instructions. Recombinant bacmids were then isolated clonally and transfected into SF9 cells with lipofectin. HERV-K reverse transcriptase was expressed in the SF9 insect cells and then purified using immobilized metal affinity chromatography (IMAC) followed by size-exclusion chromatography (SEC). […]
as §1, with “30” for “60”, “20” for “(20”, “cryptate (Cisbio” for “cryptate, Cisbio”, “60” for “30”

[5] = test system: Type 1 Interferon; assay: Cellular assay for altering IFN production in THP1 TREX1 KO cells; type: cell-based; settings: THP1-Dual KO-TREX1 cells, 1 μM 5-aza-2′-deoxycytidine, five days; direction of effect per figure legend
Procedure: (§2) THP1-Dual™ KO-TREX1 cells were purchased from Invivogen (cat #thpd-kotrex). The THP1-Dual™ KO-TREX1 cells were cultured in RPMI 1640, 10% heat-inactivated fetal bovine serum, 25 mM HEPES, 10 μg/mL Blasticidin, and 100 μg/mL Zeocin. THP1-Dual™ KO-TREX1 cells were treated with a dose titration of test compound in the presence of 1 μM 5-aza-2′-deoxycytidine (Sigma, cat #189825). Type 1 Interferon and cell viability were assessed after five days of treatment.
Stock solution of test compound was prepared in DMSO followed by a three-fold dilution in DMSO. Additional 50× dilution was prepared in cell culture media for each dilution. 10 μL of diluted test compound was then added to a 384-well plate.
THP1-Dual™ KO-TREX1 cells were treated with 1 μM 5-aza-2′-deoxycytidine. The THP1-Dual™ KO-TREX1 cells (50 μL) were added to each well of the 384-well plate containing test compound titration at 10,000 cells/well. Cells were incubated at 37° C., 5% CO2 in a humidified incubator for five days. On day five, 20 μL of cell supernatant was transferred to a 384-well, white-walled plate, followed by addition to each well of 50 μL of QUANTI-LUC solution containing stabilizer. Luminescence was detected on a plate reader according to manufacturer's instructions. Percent inhibition of interferon was calculated using the following analysis: (Average DMSO−Sample)/(Average DMSO−Average 30 μM control reagent)*100. Percent induction of interferon was calculated using the following analysis: (Sample−Average DMSO)/(10 μM control reagent−Average DMSO)*100.

[6] = CellTiter-Glo cell viability in THP1-Dual KO-TREX1 cells; type: cell-based; settings: human, 10 μM compound (highest dose), five days, read-out: CellTiter-Glo average inhibition (cell viability)
Procedure: as §2
THP1-Dual™ KO-TREX1 cells were treated with 1 μM 5-aza-2′-deoxycytidine. The THP1-Dual™ KO-TREX1 cells (50 μL) were added to each well of the 384-well plate containing test compound titration at 10,000 cells/well. Cells were incubated at 37° C., 5% CO2 in a humidified incubator for five days. […] Luminescence was detected on a plate reader according to manufacturer's instructions. […] Percent induction of interferon was calculated using the following analysis: (Sample−Average DMSO)/(10 μM control reagent−Average DMSO)*100.
The remaining cells were assessed for cell viability by adding 30 μl of CellTiter-Glo (Promega, G9683) solution to each well, and placed on a shaker for 10 minutes at room temperature. Luminescence was detected on a plate reader, according to manufacturer's instructions. Percent inhibition of cell viability using CellTiter-Glo was calculated using the following analysis. […]

[7] = HeLa Tet-On 3G L1 reporter cells, doxycycline 500 ng/mL, 72 h, Firefly luciferase, read-out: IC50
[8] = HEK 293 cells, transient LINE1 reporter, no detectable IC50 when tested at concentrations up to 100 μM, read-out: IC50
[9] = HEK 293 cells, FLuc/RLuc ratio, transient LINE1 reporter, read-out: IC50

| SMILES | IC50 [1, 7] [nM] | changes in IFN levels (inhibition or induction of IFN) [5] | other results |
| --- | --- | --- | --- |
| Cc1cn([C@H]2C[C@H](N=[N+]=[N-])[C@@H](CO)O2)c(=O)[nH]c1=O [AZT (zidovudine), zidovudine, reference compound] | > 500 | – | IC50 [2, 8]: > 100 µM |
| C[C@H](Cn1cnc2c(N)ncnc21)OCP(=O)(O)OP(=O)(O)OP(=O)(O)O [drawing 1227] | – | – | IC50 [3]: 71 nM |
| C[C@H](Cn1cnc2c(N)ncnc21)OCP(=O)(O)OP(=O)(O)OP(=O)(O)O [drawing 1228] | – | – | IC50 [4]: 20 nM |
| Nc1ccn([C@H]2CO[C@@H](CO)S2)c(=O)n1 [apricitabine] | – | – | IC50 [2, 8]: > 100 µM |
| CC(C)OC(=O)OCOP(=O)(CO[C@H](C)Cn1cnc2c(N)ncnc21)OCOC(=O)OC(C)C [Compound V-7] | 50 to 500 | – | IC50 [2, 9]: < 0.05 µM |
| C[C@H](Cc1ccc2c(N)ncnn12)OCP(=O)(O)O [Compound V-105] | > 500 | – | – |
| CC(C)OC(=O)C(C)(C)N[P@](=O)(CO[C@H](C)Cn1cnc2c(N)ncnc21)Oc1ccccc1 [Compound I-20] | < 50 | inhibition of IFN | cytotoxicity at 5 days, 10 μM [6]: 65% |
| CC(C)OC(=O)[C@H](C)N[P@](=O)(CO[C@H](C)Cn1cnc2c(N)ncnc21)Oc1ccccc1 [Compound I-1] | – | inhibition of IFN | IC50 [1]: < 50 nM; IC50 [2]: < 0.05 µM; cytotoxicity at 5 days, 10 μM [6]: 57% |
| CC(C)OC(=O)C(C)(C)N[P@@](=O)(CO[C@H](C)Cn1cnc2c(N)ncnc21)Oc1ccccc1 [Compound I-21] | 50 to 500 | induction of IFN | – |
| CC(C)OC(=O)OCOP(=O)(CO[C@H](C)Cc1ccc2c(N)ncnn12)OCOC(=O)OC(C)C [Compound V-106] | > 500 | – | – |
| CC(C)OC(=O)[C@H](C)NP(=O)(CO[C@H](C)Cc1ccc2c(N)ncnn12)Oc1ccccc1 (some centres unmarked) [Compound I-115] | 50 to 500 | induction of IFN | – |
| Nc1ccn([C@@H]2CS[C@H](CO)O2)c(=O)n1 [lamivudine (3TC), lamivudine, reference compound] | > 500 | – | IC50 [2, 8]: > 100 µM |
| Nc1nc(=O)c2ncn([C@@H]3C[C@H](CO)[C@H]3CO)c2[nH]1 [lobucavir, reference compound] | > 500 | – | IC50 [2, 8]: > 100 µM |
| CCCCCCCCCCCCCCCCOCCCOP(=O)(O)CO[C@H](C)Cn1cnc2c(N)ncnc21 [VI-1] | 50 to 500 | induction of IFN | – |
| C[C@H](Cn1cnc2c(N)ncnc21)OCP(=O)(O)O [Compound V-1] | > 500 | inhibition of IFN | IC50 [2, 9]: > 0.5 µM |
